Results published in patent US20060122387A1, “Derivatives of chromen-2-one as inhibitors of vegf production in mammalian cells” (CTI Europe S.r.l., priority 2002, published 2006).

Test system: VEGF promoter (luciferase reporter) in Hep3B cells
Test: Cell-based assay of VEGF gene transcription (VEGF-Luciferase assay)
Details: Hep3B cells stably expressing VEGF-luciferase construct; 100 μM desferoxamine, 18 hours; read-out: IC50 (concentration of compound required to cause a 50% reduction of the luciferase signal)
Description: Cell-Based Assay of VEGF Gene Transcription (VEGF-Luciferase Assay).
The activity of compounds is determined by a cell-based reporter assay which uses the hepatoma 3B (Hep3B) cell line.
This assay involves the use of a luciferase reporter gene under the direct control of the VEGF promoter. Induction of the hypoxic response using desferoxamine leads to the transcription of luciferase through activation of the VEGF promoter, which in turn leads to an increase in luciferse activity, which can be measured using most of commercially available luciferase assay kits. Molecules which inhibit the activation of the VEGF promoter can thus be detected.
This assay can be run using a Hep3B cell line which stably expresses the VEGF-luciferase construct.
Hep3B cells (ATCC Ref. No. HB-8064) are plated in 6-well plates at 2.5×10^5 cells/well in 2 mL DMEM/10% FCS and are transfected the following day using Fugene 6 (Roche Biochemicals®). Transfection mixtures per well contain 6 μL Fugene 6 transfection reagent, 1 μg of pxp2-VEGF-luciferase reporter (rat VEGF promoter, NCBI GenBank accession no. U22373, Levy et al., 1995), plus pcDNA3.1(+) Neomycin resistance vector (INVITROGEN). […]
Luciferase activity is measured using the Bright Glo Luciferase Assay System (Promega®, see also technical Manual, Part #TM052, Instructions for Use of Products E2620 and E2650, revised 10/00). […]

## CCN(CC)c1ccc2cc(-c3nc(-c4ccccc4)cs3)c(=O)oc2c1 [Example 8]
  IC50: < 10 µM
